According to patent US7538099B1, “Antiprogestin method and kit for reducing side effects associated with low dosage HRT, oral contraception and regulating menses” (Eastern Virginia Medical School, priority 1992, dated 2009):
Read-outs that look alike come from different tables or passages of the source.

Legend:
[1] = test system: ovariectomized cynomolgus monkeys; assay: Example II: vaginal bleeding in ovariectomized monkeys on estradiol and estradiol plus progesterone replacement, intermittent onapristone; type: in vivo, Macaca fascicularis
Procedure: (§1) Twenty previously ovariectomized cynomolgus monkeys (Macaca fascicularis) have implanted for 281 days a single estradiol-containing subcutaneous capsule. Estradiol release from this capsule results in serum estradiol concentrations of approximately 75 pg/ml. A subcutaneous progesterone capsule is implanted on day 191 and remains in place until day 281. Progesterone release from this capsule results in serum progesterone concentrations of approximately 4 ng/ml. The study takes place in the animal research facilities of the Eastern Virginia Medical School as described in Example I.
The purpose of this study was to evaluate break-through bleeding prior to and after onapristone treatment in ovariectomized monkeys receiving estrogen and estrogen plus progesterone replacement therapy. The twenty monkeys were assigned to the following four groups: Group I receives onapristone vehicle (saline) on days 30, 60, 90, 120, 150, 180, 210, 240, 270. Group 2 receives 3 mg/kg i.m. onapristone on days 30, 60, 90, 120, 150, 180, 210, 240, 270. Group 3 is treated with 10 mg/kg i.m. onapristone on the same days. Group 4 receives 30 mg/kg i.m. onapristone on the same days. Vaginal swabs are performed daily from day 1 to 281. The primary parameter for evaluation in this study is the occurrence of vaginal bleeding.

[2] = test system: ovariectomized cynomolgus monkeys; assay: Example III: vaginal bleeding in ovariectomized monkeys on estradiol and low-dose progesterone implants, onapristone 40 mg/kg im; type: in vivo; settings: for incidence of breakthrough bleeding: 40 mg/kg im, estradiol and low-dose progesterone replacement
Procedure: (§2) Twenty ovariectomized cynomolgus monkeys were implanted subcutaneously with an estradiol-containing silastic capsule (3 cm length).
The study was undertaken in two phases.
(§3) All monkeys have reached at least day 272. The estradiol implant will remain in place to day 301. […] A smaller progesterone implant (0.5 cm) will be in place from day 210 to 294. This implant is intended to produce a serum progesterone concentration of approximately 0.7 ng/ml. The two experimental groups (M=10/group) were as follows: • Group 1 Onapristone vehicle (saline) on days 180, 197, 240, and 270 • Group 2 Onapristone […] (40 mg/kg, im) on days 180, 197, 240, and 270

[3] = test system: ovulation (serum estradiol and progesterone); assay: Example I Part II: weekly serum progesterone and estradiol (breakthrough ovulation, endogenous estrogen biosynthesis); type: in vivo, Macaca mulatta; settings: continuous ultra low dose regimen plus intermittent RU 486; almost unvarying
From the text: In Part II, 30 of these primates were randomly assigned to five treatment groups of six each: (1) the oral contraceptive medication employed in Part I was continued (21+7 day regimen) for 6 months; (2) continuous (no “pill-free” interval) daily estrogen-progestin medication, with combined single day oral administration of an antiprogestin (RU 486) on treatment days 30, 60, 90, 120, 150, and 180; (3) same as group 2, except that the progesterone antagonist was given only on days 60, 120, and 180; (4) same as group 2, except that RU 486 was given only on days 90 and 180; and (5) 180 days of continuous estrogen-progestin daily therapy, but without any antiprogestin treatment. Daily monitoring to detect vaginal blood, as in Part I above, was discontinued at 187 days. Femoral blood was collected once weekly throughout in order to identify potential breakthrough ovulation via progesterone elevations; serum values above 1.0 ng/ml were considered indicative of ovarian luteal function and possible ovulation. Likewise, these same specimens were analyzed for estradiol levels in order to monitor ongoing endogenous estrogen biosynthesis. Two monkeys, in groups 1 and 3, respectively, were dropped from the ongoing protocol, one due to a skin rash and the other because of a thumb infection requiring topical treatment. Neither incident is believed to be related to the hormonal treatments.

[4] = test system: adult female rhesus monkeys; assay: Example I Part II: daily vaginal swabs for bleeding, ultra low dose oral contraception with or without intermittent RU 486, 180 days; type: in vivo, Macaca mulatta
From the text: In Part II, 30 of these primates were randomly assigned to five treatment groups of six each: (1) the oral contraceptive medication employed in Part I was continued (21+7 day regimen) for 6 months; (2) continuous (no “pill-free” interval) daily estrogen-progestin medication, with combined single day oral administration of an antiprogestin (RU 486) on treatment days 30, 60, 90, 120, 150, and 180; (3) same as group 2, except that the progesterone antagonist was given only on days 60, 120, and 180; (4) same as group 2, except that RU 486 was given only on days 90 and 180; and (5) 180 days of continuous estrogen-progestin daily therapy, but without any antiprogestin treatment. Daily monitoring to detect vaginal blood, as in Part I above, was discontinued at 187 days. Femoral blood was collected once weekly throughout in order to identify potential breakthrough ovulation via progesterone elevations; serum values above 1.0 ng/ml were considered indicative of ovarian luteal function and possible ovulation. Likewise, these same specimens were analyzed for estradiol levels in order to monitor ongoing endogenous estrogen biosynthesis. […]
Data derived from Part II of the study was listed by treatment group with the profiles of endometrial bleeding through six treatment cycles to 180 days. Mean (+SEM) number of days for breakthrough bleeding or menses was calculated by dividing the total number of incidents recorded (per treatment cycle in the case of group 1 or 30 days intervals for groups 2 to 5) by the number of individuals observed in the group. In the tabulation of data, menses (withdrawal or induced bleeding at expected intervals) was scored for vaginal blood detected within the “pill free” interval for group 1 or within seven days after the intermittent administration of RU 486 during continuous ultra low dose oral contraception (groups 2 to 4). Similarly, failure to observe vaginal bleeding during these times of expected menses, either withdrawal of the oral contraceptive medication or soon after giving the progesterone antagonist, was scored as withdrawal amenorrhea.

[5] = Example II: serum hormone concentrations from subcutaneous capsules; type: in vivo, Macaca fascicularis
Procedure: as §1

[6] = set-up: species or system cynomolgus monkeys; settings: female, cynomolgus monkey, in vivo, sc
Procedure: as §2, §3

For CN(C)c1ccc([C@H]2C[C@]3(C)[C@@H](CC[C@]3(O)CCCO)[C@@H]3CCC4=CC(=O)CCC4=C32)cc1 [Onapristone], which “incidence of breakthrough bleeding” value ([1]; Groups 2-4: 3, 10, 30 mg/kg i.m. every 30 days, estradiol capsule) is on record?
Its value is “lowers the incidence of breakthrough bleeding”.

What about the “induction of bleeding by onapristone during estradiol treatment” value ([1]; Groups 2-4: 3, 10, 30 mg/kg i.m. every 30 days, estradiol capsule only) of the same molecule?
Its value is “does not induce bleeding”.

And the “induction of vaginal bleeding during combined estradiol and progestin treatment” value ([1]; after progesterone capsule implanted (day 191))?
The value was “induces vaginal bleeding”.

What about the “incidence of breakthrough bleeding” value [2] of the same molecule?
The value was “reduced the incidence of BTBs”.

And the “incidence of breakthrough bleeding” value ([2]; listed as onapristone)?
Its value is “reduced the incidence of breakthrough bleeding”.

What about the “days of bleeding that followed the day 197 onapristone treatment” value ([2]; Group 2, 40 mg/kg) of the same molecule?
The value was “Twelve of the twenty days”.

And the “monkeys in which bleeding followed the day 197 treatment” value ([2]; Group 2, 40 mg/kg)?
Its value is “four of the ten monkeys”.

What about the “monkeys in which bleeding occurred” value ([2]; Group 2, 40 mg/kg) of the same molecule?
The value was “seven of the ten monkeys”.

What about the “days of unscheduled vaginal bleeding (breakthrough bleeding)” value ([2]; Group 2, 40 mg/kg im, controls 33 days) of the same molecule?
The value was 2 days.

And the “days of bleeding that followed the day 240 onapristone treatment” value ([2]; Group 2, 40 mg/kg, in one monkey)?
Its value is “Six of the twenty days”.

And the “days of vaginal bleeding” value ([2]; Group 2, 40 mg/kg, out of 800 days of observation)?
The value was 20 days.

What about the withdrawal-bleeding ([2]; monkeys substituted with E2 and low-dose progesterone) of the same molecule?
The withdrawal-bleeding was “induced withdrawal-bleeding”.

Which results are given for CC#C[C@]1(O)CC[C@H]2[C@@H]3CCC4=CC(=O)CCC4=C3[C@@H](c3ccc(N(C)C)cc3)C[C@@]21C [RU 486]?
serum estradiol levels [3]: ~25 pg/mL; duration of menses after RU 486 ([4]; RU 486 50 mg intermittently during continuous ultra low dose oral contraception, P<0.05 versus interrupted pill cycle alone): 3.1 ± 0.8 days; time to induced bleeding after RU 486, all instances ([4]; administered at 30, 60 or 90 day intervals): ≤ 72 h; reduction of overall breakthrough bleeding incidence ([4]; single 50 mg oral RU 486 doses at 30, 60 or 90 day intervals during continuous ultra low dose oral contraception, groups 2 to 4 combined versus group 1, P<0.05): 57%

For C[C@]12CC[C@@H]3c4ccc(O)cc4CC[C@H]3[C@@H]1CC[C@@H]2O [estradiol], which “rate of breakthrough bleeding with progressing duration of estradiol treatment” value ([1]; Group 1, estradiol capsule, onapristone vehicle) is on record?
The value was “increasing rate of breakthrough bleeding”.

What about the “breakthrough bleedings (BTBs) with E2 alone” value ([2]; ovariectomized monkeys substituted with E2 alone) of the same molecule?
Its value is “do not exhibit breakthrough bleedings”.

And the serum estradiol concentrations ([5]; single estradiol-containing subcutaneous capsule)?
The serum estradiol concentrations was “approximately 75 pg/ml”.

And the serum estradiol concentrations [6]?
Its serum estradiol concentrations is “approximately 75 pg/ml”.

For CC(=O)[C@H]1CC[C@H]2[C@@H]3CCC4=CC(=O)CC[C@]4(C)[C@H]3CC[C@]12C [progesterone], which “BTBs after addition of low-dose progesterone” value ([2]; on estradiol implant) is on record?
The value was “increase in BTBs”.

What about the serum progesterone concentrations ([5]; subcutaneous progesterone capsule, day 191 to 281) of the same molecule?
Its serum progesterone concentrations is “approximately 4 ng/ml”.
